From patent US7482346B2, “Derivatives of alkylpiperazine and alkylhomopiperazine-carboxylates, preparation method thereof and use of same as fatty acid amido hydrolase enzyme inhibitors” (Sanofi-Aventis, priority 2004, dated 2009)
Counter-ions that a name gives are not always drawn.

test system: male OFI mice; experiment: analgesia test: abdominal stretches induced by PBQ (phenylbenzoquinone); format: in vivo, mouse; conditions: dose of 10 mg/kg at 120 minutes, PBQ 2 mg/kg i.p.
Description: The in vivo activity of the compounds of the invention was evaluated in an analgesia test.
Accordingly, intraperitoneal (i.p.) administration of PBQ (phenylbenzoquinone, 2 mg/kg in a 0.9% sodium chloride solution containing 5% of ethanol) to male OFI mice weighing 25 to 30 g causes abdominal stretches, on average 30 twists or contractions during the period from 5 to 15 minutes after injection. The test compounds are administered orally (p.o.) or intraperitoneally (i.p.) in suspension in Tween 80 at 0.5%, 60 minutes or 120 minutes before the administration of PBQ. […] For example, compounds 49 and 69 of the table reduce by 43% and 47% respectively, the number of stretches induced by PBQ, at a dose of 10 mg/kg at 120 minutes.

SMILES | reduction of the number of stretches induced by PBQ [%]
CNC(=O)COC(=O)N1CCN(CCCc2cc(-c3ccc(Cl)cc3)no2)CC1 [Compound 69, 2-(methylamino)-2-oxoethyl 4-{3-[3-(4-chlorophenyl)isoxazol-5-yl]propyl}piperazine-1-carboxylate] | 47
CNC(=O)COC(=O)N1CCN(CCCc2ccc(-c3ccccc3)cc2)CC1 [Compound 49, 2-(methylamino)-2-oxoethyl 4-(3-biphenyl-4-ylpropyl)piperazine-1-carboxylate] | 43

target: T1, FAAH (fatty acid amide hydrolase) (Mus musculus, UniProt O08914); experiment: radio-enzymatic assay of FAAH inhibition (hydrolysis of anandamide [1-3H ethanolamine]); format: biochemical; conditions: mouse brain membrane homogenates; anandamide [1-3H ethanolamine] 10 μM; 15 minutes at 25° C.; read-out: IC50 (concentration inhibiting by 50% the control enzyme activity of FAAH)
T1 construct: Membrane homogenates are prepared at the time of use by homogenizing the tissues in a Polytron; from tissue; host or cells: mouse brain (minus the cerebellum), membrane homogenate
T1 sequence (O08914 1-579): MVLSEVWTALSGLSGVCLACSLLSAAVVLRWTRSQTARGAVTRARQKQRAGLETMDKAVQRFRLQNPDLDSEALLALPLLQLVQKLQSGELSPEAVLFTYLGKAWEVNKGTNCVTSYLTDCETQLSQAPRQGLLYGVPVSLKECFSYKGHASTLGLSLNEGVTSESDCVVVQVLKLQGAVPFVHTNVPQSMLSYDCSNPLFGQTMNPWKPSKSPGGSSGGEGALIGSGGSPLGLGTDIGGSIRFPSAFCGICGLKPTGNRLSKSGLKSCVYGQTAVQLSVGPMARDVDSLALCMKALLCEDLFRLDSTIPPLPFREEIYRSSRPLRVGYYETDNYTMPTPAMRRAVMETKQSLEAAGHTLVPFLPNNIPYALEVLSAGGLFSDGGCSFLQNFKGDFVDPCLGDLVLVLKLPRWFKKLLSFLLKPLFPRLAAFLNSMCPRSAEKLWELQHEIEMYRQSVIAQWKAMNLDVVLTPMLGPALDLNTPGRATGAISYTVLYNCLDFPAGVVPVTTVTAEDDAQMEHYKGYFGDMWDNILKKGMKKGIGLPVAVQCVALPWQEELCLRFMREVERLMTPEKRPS
Description: The compounds of the invention were subjected to pharmacological tests permitting determination of their inhibitory effect on the enzyme FAAH (fatty acid amide hydrolase).
Accordingly, mouse brains (minus the cerebellum) are removed and stored at −80° C. Membrane homogenates are prepared at the time of use by homogenizing the tissues in a Polytron in a 10 mM Tris-HCl buffer (pH 8) containing 150 mM NaCl and 1 mM EDTA. The enzyme reaction is subsequently conducted in 70 μl of buffer containing bovine serum albumin without fatty acids (1 mg/ml). In succession, the test compounds, at various concentrations, anandamide [1-^3H ethanolamine] (specific activity: 15-20 Ci/mmol) diluted to 10 μM with cold anandamide, and the membrane preparation (400 μg of frozen tissue per assay) are added. After 15 minutes at 25° C. the enzyme reaction is terminated by adding 140 μl of chloroform/methanol (2:1). The mixture is stirred for 10 minutes and then centrifuged for 15 minutes at 3500 g. An aliquot (30 μl) of the aqueous phase containing the 1-^3H ethanolamine is counted by liquid scintillation.

IC50 [nM] | SMILES
72 | CNC(=O)COC(=O)N1CCN(CCc2cccc3ccccc23)CC1 [Compound 21, 2-(methylamino)-2-oxoethyl 4-[2-(1-naphthyl)ethyl]piperazine-1-carboxylate]
50 | CNC(=O)COC(=O)N1CCN(CCCc2cccc(-c3ccccc3)c2)CC1 [Compound 48, 2-(methylamino)-2-oxoethyl 4-(3-biphenyl-3-ylpropyl)piperazine-1-carboxylate]
32 | CNC(=O)COC(=O)N1CCN(CCCc2ccc(-c3ccccc3)cc2)CC1 [Compound 49, 2-(methylamino)-2-oxoethyl 4-(3-biphenyl-4-ylpropyl)piperazine-1-carboxylate]

test system: not given; experiment: not given; conditions: not given

melting point | SMILES
130 to 132 °C | CNC(=O)COC(=O)N1CCN(CCc2cc(-c3ccc(Cl)cc3)no2)CC1 [Compound 29, 2-(methylamino)-2-oxoethyl 4-{2-[3-(4-chlorophenyl)isoxazol-5-yl]ethyl}piperazine-1-carboxylate]
133 to 135 °C | CNC(=O)COC(=O)N1CCN(CCc2ccc3ccccc3c2)CC1 [Compound 25, 2-(methylamino)-2-oxoethyl 4-(2-naphthalen-2-ylethyl)piperazine-1-carboxylate]
212 to 216 °C (dec.) | CNC(=O)COC(=O)N1CCN(C(C)(C)CCc2cccc(-c3ccccc3)c2)CC1 (as salt: HCl) [Compound 50, 2-(methylamino)-2-oxoethyl 4-(3-biphenyl-3-yl-1,1-dimethylpropyl)piperazine-1-carboxylate hydrochloride]
82 to 85 °C | CNC(=O)COC(=O)N1CCN(CCCc2cccc(-c3cccc(Cl)c3)c2)CC1 [Compound 52, 2-(methylamino)-2-oxoethyl 4-[3-(3′-chlorobiphenyl-3-yl)propyl]piperazine-1-carboxylate]
102 to 104 °C | NC(=O)COC(=O)N1CCCN(CC#Cc2cccc(C(F)(F)F)c2)CC1 [Compound 99, 2-amino-2-oxoethyl 4-{3-[3-(trifluoromethyl)phenyl]prop-2-yn-1-yl}-1,4-diazepane-1-carboxylate]
159 to 161 °C | CNC(=O)COC(=O)N1CCN(CCOc2ccc(Cl)cc2)CC1 [Compound 130, 2-(methylamino)-2-oxoethyl 4-{2-[(4-chlorophenyl)oxy]ethyl}piperazine-1-carboxylate]
109 to 111 °C | CNC(=O)COC(=O)N1CCN(C/C=C/c2ccccc2)CC1 [Compound 85, 2-(methylamino)-2-oxoethyl trans-4-(3-phenylprop-2-en-1-yl)piperazine-1-carboxylate]
